Marks after values point to notes of the source that are not given here.
test system: mouse macrophage cell line, RAW264; assay: Inhibition of LPS-induced nitric oxide (NO) production, nitrite by Griess reaction; format: cell-based; conditions: 10⁻⁵ M test compound, RAW264, 1 µg/ml LPS, 36hr
Protocol: The mouse macrophage cell line, RAW264, obtained from the Riken Cell Bank, was cultured in RPMI-1640 medium without phenol red containing 10% inactivated fetal bovine serum and 100 µg/ml kanamycin at 37°C in 5% CO₂ in air. Cells were seeded into 96-well tissue culture plates (6x10⁴ cells/well) and allowed to adhere for 4 hr at 37 °C . To assess the effects of test compounds on induction of NO production, 100 µl of fresh culture medium containing them were added to the medium, followed by the additions of 1 µg/ml of LPS (E Coli 055, derived from B5 cell line, DIFCO Co.) to activate macrophage cells. At the same time, cultivation was conducted in the presence or absence of a test compound.
Since the measurement of NO is difficult due to the unstableness of NO, the nitrite ion (NO₂⁻) which is the oxidation product of NO was measured.
Productions of NO were assayed by measuring the concentrations of NO₂⁻ in culture medium by the Griess reaction by the method of Green et al. (Anal. Biochem., 126, 131-138, 1982). Nitrite accumulation in the cell culture medium was measured 36hr after LPS-stimulations. One hundred microliters of Griess reagents (1% sulfanylamide and 0.1% N-1-naphthylethylenediamine dichloride in 5% phosphoric acid) were added to 100 µl of cell culture medium at a room temperature. After 10 min, the optical densities at 550 nm (OD550) were measured by using a microplate reader.
In unstimulated RAW264 macrophages, NO₂⁻ production for 36 hr was not determined in the presence or absence of test compounds. Calculations of the inhibition% of NO production by the test compounds were carried out as depicted below. Inhibition% = (1-a/b)x100(%) [formula] a; the OD550 in presence of test compound b; the OD550 in absence of test compound IC₅₀ values were expressed as the concentrations (M) of test compounds producing 50% inhibition.

SMILES	Inhibition (%) of NO production at the concentration of 10⁻⁵ M
[O-][S+](Cc1ccc(Cl)cc1)c1nnc(OCc2ccc(Cl)cc2)c2cccn12 (stereo not drawn) [Example 36, 1-(4-chlorobenzyloxy)-4-(4-chlorobenzylsulfinyl)pyrrolo [1,2-d][1.2.4]triazine]	31 * %
[O-][S+](Cc1ccc(Cl)cc1)c1nnc(OCc2ccc(Cl)cc2)c2nccn12 (stereo not drawn) [Example 35, 8-(4-chlorobenzyloxy)-5-(4-chlorobenzylsulfinyl)imidazo[1,2-d][1.2.4]triazine]	20 * %
[O-][S+](Cc1cccc(Cl)c1)c1nnc(OCc2cccc(Cl)c2)c2nccn12 (stereo not drawn) [Example 40, 8-(3-chlorobenzyloxy)-5-(3-chlorobenzylsulfinyl)imidazo[1,2-d][1.2.4]triazine]	32 * %
N#Cc1ccc(COc2nnc([S+]([O-])Cc3ccc(C#N)cc3)n3ccnc23)cc1 (stereo not drawn) [Example 41, 8-(4-cyanobenzyloxy)-5-(4-cyanobenzylsulfinyl)imidazo[1,2-d][1.2.4]triazine]	49 * %
[O-][S+](Cc1ccc(C(F)(F)F)cc1)c1nnc(OCc2ccc(C(F)(F)F)cc2)c2nccn12 (stereo not drawn) [Example 42, 8-(4-trifluoromethylbenzyloxy)-5-(4-trifluoromethylbenzylsulfinyl)imidazo[1,2-d][1.2.4]triazine]	8 * %
Cc1ncn2c([S+]([O-])Cc3ccc(Cl)cc3)nnc(O)c12 (stereo not drawn) [Example 33, 4-(4-chlorobenzylsulfinyl)-1-hydroxy-8-methyl imidazo [1,5-d][1.2.4]triazine]	4 * %

target: T1, rat mast cell chymase (Rattus norvegicus, UniProt P09650); assay: Inhibition of chymase activity (chromogenic substrate N-Suc-Ala-Ala-Pro-Phe-p-nitroanilide); format: biochemical; conditions: 10⁻⁵ M test compound
T1 construct: Chymase was partially purified from rat peritoneal cavity mast cells; from tissue; host or cells: peritoneal cavity mast cells of male Sprague Dawley rats
T1 sequence (P09650 21-260): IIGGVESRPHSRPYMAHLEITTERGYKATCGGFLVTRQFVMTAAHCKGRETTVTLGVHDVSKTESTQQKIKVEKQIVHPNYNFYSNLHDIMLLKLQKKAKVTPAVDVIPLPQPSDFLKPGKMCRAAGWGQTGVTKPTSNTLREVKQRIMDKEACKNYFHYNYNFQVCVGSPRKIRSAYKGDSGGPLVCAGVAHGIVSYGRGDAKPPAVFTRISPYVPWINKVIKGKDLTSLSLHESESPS
Protocol: Mast cells were obtained from the peritoneal cavity of male Sprague Dawley(SD) rats by the method of Graziano et al. (Methods in Enzymol., 162, 501-514, 1988), layered on 75% Percoll (Pharmacia Biotech), and then purified to over 90% purity by centrifugation at 150xG for 15 min.
Chymase was partially purified from rat peritoneal cavity mast cells by the method of Kido et al. (Arch. Biochem. Biophys., 239, 436-443, 1985). Purified mast cells were quickly frozen and thawed several times and homogenized in a low ionic strength-buffer (pH6.5). The homogenate was centrifuged at 20,000xG for 20 min. The precipitate was re-homogenized in a high ionic strength-buffer (pH8.0) and cetrifuged at 20,000xG for 20 min. The supernatant was recovered and the enzyme was extracted. From the crude extract, chymase was partially purified by an Octyl-Sepharose CL-4B (Pharmacia Biotech) hydrophobic chromatography.
Ten microliters of test compounds in dimethyl sulfoxide (DMSO) were mixed with 250 µl of 60 mM Tris-HCl buffer (pH8.0) containing 0.2 M NaCl and 250 µl of 1 µg/ml chymase in buffer. The mixtures were pre-incubated for 5 min. at 37°C . After the addition of 500 µl of 0.6 mM chromogenic substrate, N-Suc-Ala-Ala-Pro-Phe-p-nitroanilide (Sigma), the reactions were carried out for 30 min. at 37 °C , and then stopped by the addition of 50 µl of 0.75 M acetic acid. The absorbances at 405nm were measured in a spectrophotometer, and the amount of p-nitroaniline released from the substrate was measured.
Calculations of the inhibition% of chymase by test compounds were carried out as below. Inhibition% = {1-(a-a' )/(b-b' ) } x 100 (%) [formula] a; the absorbance in presence of test compound. a'; the absorbance of non-reaction in presence of test compound. b; the absorbance in absence of test compound. b'; the absorbance of non-reaction in absence of test compound.
IC₅₀ values were expressed as the concentrations (M) of test compounds producing 50% inhibition.

SMILES	Inhibition (%) of chymase at a concentration of 10⁻⁵ M
CCOc1nnc([S+]([O-])CC)n2ccnc12 (stereo not drawn) [Example 46, 8-ethoxy-5-ethylsulfinylimidazo[1,2-d][1.2.4]triazine]	5 % *
[O-][S+](CCCCl)c1nnc(OCCCCl)c2nccn12 (stereo not drawn) [Example 51, 8-(3-chloropropoxy)-5-(3-chloropropyl)sulfinylimidazo[1,2-d][1.2.4]triazine]	50% *
CCOc1nnc([S+]([O-])CC)n2cnc(C)c12 (stereo not drawn) [Example 55, 1-ethoxy-4-ethylsulfinyl-8-methylimidazo[1,5-d][1.2.4]triazine]	22% *
CCn1nc([S+]([O-])CC)n2cnc(C)c2c1=O (stereo not drawn) [Example 56, 2-ethyl-4-ethylsulfinyl-8-methylimidazo[1,5-d][1.2.4]triazine-1(2H)-one]	8% *
[O-][S+](Cc1ccc(C(F)(F)F)cc1)c1nnc(OCc2ccc(C(F)(F)F)cc2)c2nccn12 (stereo not drawn) [Example 42, 8-(4-trifluoromethylbenzyloxy)-5-(4-trifluoromethylbenzylsulfinyl)imidazo[1,2-d][1.2.4]triazine]	11%*
CC(C)c1ccc(COc2nnc([S+]([O-])Cc3ccc(C(C)C)cc3)n3ccnc23)cc1 (stereo not drawn) [Example 38, 8-(4-isopropylbenzyloxy)-5-(4-isopropylbenzylsulfinyl) imidazo[1,2-d][1,2,4]triazine]	41% *
CCOC(=O)COc1nnc([S+]([O-])CC(=O)OCC)n2ccnc12 (stereo not drawn) [Example 52, 8-ethoxycarbonylmethyloxy-5-ethoxycarbonylmeth ylsulfinylimidazo[1,2-d][1.2.4]triazine]	39% *

test system: ICR mice; assay: Single-dose toxicity; format: in vivo; conditions: male ICR mice, p.o. 500 mg/kg single dose, observed for 14 days
Protocol: Ten Male ICR mice (4-week-old) were housed in each group. Test compounds were suspended in 0.5% aqueous sodium methyl cellulose, and then administered p.o. at the dose of 500 mg/kg to mice. Animals were then observed for 14 days and the mortality rate was determined. […]

SMILES	The number of death/ The number of animal
[O-][S+](Cc1ccc(Cl)cc1)c1nnc(O)c2cccn12 (stereo not drawn) [Example 29, 4-(4-chlorobenzylsulfinyl)-1-hydroxypyrrolo[1,2-d][1.2.4]triazine]	0/10
[O-][S+](Cc1ccc(Cl)cc1)c1nnc(OCc2ccc(Cl)cc2)c2nccn12 (stereo not drawn) [Example 35, 8-(4-chlorobenzyloxy)-5-(4-chlorobenzylsulfinyl)imidazo[1,2-d][1.2.4]triazine]	0/10
Cc1ncn2c([S+]([O-])Cc3ccc(Cl)cc3)nnc(OCc3ccc(Cl)cc3)c12 (stereo not drawn) [Example 53, 1-(4-chlorobenzyloxy)-4-(4-chlorobenzylsulfinyl)-8-methylimidazo[1,5-d][1.2.4]triazine]	0/10
[O-][S+](Cc1ccc(Cl)cc1)c1nnc(O)c2nccn12 (stereo not drawn) [Example 31, 5-(4-chlorobenzylsulfinyl)-8-hydroxyimidazo[1,2-d][1.2.4]triazine]	0/10
Cc1ncn2c([S+]([O-])Cc3ccc(Cl)cc3)nn(Cc3ccc(Cl)cc3)c(=O)c12 (stereo not drawn) [Example 54, 2-(4-chlorobenzyl)-4-(4-chlorobenzylsulfinyl)-8-methyl imidazo[1,5-d][1.2.4]triazine-1(2H)-one]	0/10
